Experimental data taken from patent publication US20160272617A1, “SUBSTITUTED PHENYLALANINE DERIVATIVES” (BAYER PHARMA AKTIENGESELLSCHAFT, priority 2013, published 2016).
Counter-ions that a name gives are not always drawn.

Experiments:
human and animal plasma = experiment: Determination of anticoagulatory activity: activated partial thromboplastin time (aPTT) in plasma; settings: concentration of test substance which brings about a 1.5-fold extension of the aPTT; plasma species not given
Outline: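 Citrated plasma (1:9, 0.11 M citrate; 4000 g, 15 min) from human or animal blood incubated with test compound and cephalin/kaolin PTT reagent for 3 min at 37° C.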

human factor XIa = target: T1, human factor XIa (Homo sapiens, UniProt P03951); experiment: Measurement of FXIa inhibition (fluorogenic peptide substrate Boc-Glu(OBzl)-Ala-Arg-AMC); format: biochemical; settings: factor XIa from Kordia, 15 min preincubation, 30 min at 22° C., fluorescence
T1 construct: purchased Kordia
Outline: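 Released AMC fluorescence (360/460 nm) read after 30 min at 22 °C. The reaction was started with Boc-Glu(OBzl)-Ala-Arg-AMC (10 μM stock) after a 15 min preincubation of the enzyme (0.45 nM stock) with compound (final 50 μM to 0.00013 μM).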

T1 sequence (P03951 388-625 limits assumed): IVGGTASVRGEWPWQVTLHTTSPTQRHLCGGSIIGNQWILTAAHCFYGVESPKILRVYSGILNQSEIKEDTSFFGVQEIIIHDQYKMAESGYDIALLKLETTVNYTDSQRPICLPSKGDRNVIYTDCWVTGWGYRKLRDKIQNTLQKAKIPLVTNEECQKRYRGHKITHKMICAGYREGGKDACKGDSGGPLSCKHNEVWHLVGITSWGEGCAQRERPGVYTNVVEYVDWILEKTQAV
T1 sequence (P03951 19-387 partner limits assumed): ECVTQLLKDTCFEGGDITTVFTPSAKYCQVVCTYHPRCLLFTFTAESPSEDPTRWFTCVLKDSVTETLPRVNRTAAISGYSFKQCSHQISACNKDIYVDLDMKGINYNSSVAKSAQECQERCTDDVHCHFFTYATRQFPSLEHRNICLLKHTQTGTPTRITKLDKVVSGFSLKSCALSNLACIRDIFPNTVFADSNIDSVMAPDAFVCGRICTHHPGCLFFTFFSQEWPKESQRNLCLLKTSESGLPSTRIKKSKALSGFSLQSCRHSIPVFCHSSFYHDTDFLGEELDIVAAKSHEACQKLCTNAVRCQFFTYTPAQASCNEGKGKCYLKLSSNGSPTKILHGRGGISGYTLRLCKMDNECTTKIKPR

SMILES	aPTT (human and animal plasma)	IC50 (human factor XIa)
Cc1cc(C(=O)N[C@@H]2CCNC2=O)ccc1-c1ccc(C[C@H](NC(=O)[C@H]2CC[C@H](CN)CC2)C(=O)Nc2ccc3cn[nH]c3c2)cc1 [Example 145, 4′-[(2S)-2-({[trans-4-(Aminomethyl)cyclohexyl]carbonyl}amino)-3-(1H-indazol-6-ylamino)-3-oxopropyl]-2-methyl-N-[(3R)-2-oxopyrrolidin-3-yl]biphenyl-4-carboxamide hydrochloride]	0.07 µmol/L	3.2 nM
Cc1cc(C(=O)NC2CCC(N(C)C)CC2)ccc1-c1ccc(C[C@H](NC(=O)[C@H]2CC[C@H](CN)CC2)C(=O)Nc2ccc3[nH]c(C(F)(F)F)nc3c2)cc1 (stereo partly drawn) [Example 77, 4′-[(2S)-2-({[trans-4-(Aminomethyl)cyclohexyl]carbonyl}amino)-3-oxo-3-{[2-(trifluoromethyl)-1H-benzimidazol-5-yl]amino}propyl]-N-[4-(dimethylamino)cyclohexyl]-2-methylbiphenyl-4-carboxamide hydrochloride]	0.22 µmol/L	8.4 nM
Cc1cc(C(=O)NC2C3CNCC32)ccc1-c1ccc(C[C@H](NC(=O)[C@H]2CC[C@H](CN)CC2)C(=O)Nc2ccc(-c3nnc(C(F)(F)C(F)(F)C(=O)O)[nH]3)cc2)cc1 (stereo partly drawn) [Example 154, 3-(5-[4-({(2S)-2-({[trans-4-(Aminomethyl)cyclohexyl]carbonyl}amino)-3-[4′-(3-azabicyclo[3.1.0]hex-6-ylcarbamoyl)-2′-methylbiphenyl-4-yl]propanoyl}amino)phenyl]-4H-1,2,4-triazol-3-yl}-2,2,3,3-tetrafluoropropanoic acid hydrochloride]	0.09 µmol/L	2.8 nM
Cc1cc(-c2ccc(C[C@H](NC(=O)[C@H]3CC[C@H](CN)CC3)C(=O)Nc3ccc(-c4nnn[nH]4)cc3)cc2)ccc1C(=O)NC1CC1 [Example 95, 4′-[(2S)-2-({[trans-4-(Aminomethyl)cyclohexyl]carbonyl}amino)-3-oxo-3-{[4-(1H-tetrazol-5-yl)phenyl]amino}propyl]-N-cyclopropyl-3-methylbiphenyl-4-carboxamide hydrochloride]	0.33 µmol/L	2.4 nM
COCCOCCOCCOCCNC(=O)c1ccc(-c2ccc(C[C@H](NC(=O)[C@H]3CC[C@H](CN)CC3)C(=O)Nc3ccc(-c4nn[nH]n4)cc3)cc2)c(Cl)c1 [Example 26, 4′-[(2S)-2-({[trans-4-(Aminomethyl)cyclohexyl]carbonyl}amino)-3-oxo-3-{[4-(2H-tetrazol-5-yl)phenyl]amino}propyl]-2-chloro-N-(2,5,8, 11-tetraoxatridecan-13-yl)biphenyl-4-carboxamide hydrochloride]	0.19 µmol/L	2.4 nM
Cc1cc(C(=O)NC2CCC3NCCC32)ccc1-c1ccc(C[C@H](NC(=O)[C@H]2CC[C@H](CN)CC2)C(=O)Nc2ccc(-c3nnc(C(F)(F)C(F)(F)C(=O)O)[nH]3)cc2)cc1 (stereo partly drawn) [Example 115, 3-{5-[4-({(2S)-2-({[trans-4-(Aminomethyl)cyclohexyl]carbonyl}amino)-3-[2′-methyl-4′-(octahydrocyclopenta[b]pyrrol-4-ylcarbamoyl)biphenyl-4-yl]propanoyl}amino)phenyl]-4H-1,2,4-triazol-3-yl}-2,2,3,3-tetrafluoropropanoic acid hydrochloride]	0.09 µmol/L	2.3 nM
COCCOCCOCCOCCNC(=O)c1ccc(-c2ccc(C[C@H](NC(=O)[C@H]3CC[C@H](CN)CC3)C(=O)Nc3ccc(-c4nn[nH]n4)cc3)cc2)c(C)c1 [Example 27, 4′-[(2S)-2-({[trans-4-(Aminomethyl)cyclohexyl]carbonyl}amino)-3-oxo-3-{[4-(2H-tetrazol-5-yl)phenyl]amino}propyl]-2-methyl-N-(2,5,8,11-tetraoxatridecan-13-yl)biphenyl-4-carboxamide hydrochloride]	0.24 µmol/L	2.8 nM
Cc1cc(C(=O)NC2CNCC(F)(F)C2)ccc1-c1ccc(C[C@H](NC(=O)[C@H]2CC[C@H](CN)CC2)C(=O)Nc2ccc(-c3nn[nH]n3)c(F)c2)cc1 (stereo partly drawn) [Example 90, 4′-[(2S)-2-({[trans-4-(Aminomethyl)cyclohexyl]carbonyl}amino)-3-{[3-fluoro-4-(2H-tetrazol-5-yl)phenyl]amino}-3-oxopropyl]-N-(5,5-difluoropiperidin-3-yl)-2-methylbiphenyl-4-carboxamide hydrochloride]	0.06 µmol/L	1.6 nM
NC[C@H]1CC[C@H](C(=O)N[C@@H](Cc2ccc(-c3ccc(C(=O)NC4CCNCC4)cc3Cl)cc2)C(=O)Nc2ccc(-c3nn[nH]n3)cc2)CC1 [Example 11, 4′-[(2S)-2-({[trans-4-(Aminomethyl)cyclohexyl]carbonyl}amino)-3-oxo-3-{[4-(2H-tetrazol-5-yl)phenyl]amino}propyl]-2-chloro-N-(piperidin-4-yl)biphenyl-4-carboxamide hydrochloride]	0.08 µmol/L	2.5 nM
Cc1cc(C(=O)NC2CCNCC2)ccc1-c1ccc(C[C@H](NC(=O)[C@H]2CC[C@H](CN)CC2)C(=O)Nc2ccc3c(=O)[nH][nH]c3c2)cc1 [Example 22, 4′-{(2S)-2-({[trans-4-(Aminomethyl)cyclohexyl]carbonyl}amino)-3-oxo-3-[(3-oxo-2,3-dihydro-1H-indazol-6-yl)amino]propyl}-2-methyl-N-(piperidin-4-yl)biphenyl-4-carboxamide hydrochloride]	0.06 µmol/L	15 nM
Cc1cc(C(=O)N[C@H]2CC[C@H](O)CC2)ccc1-c1ccc(C[C@H](NC(=O)[C@H]2CC[C@H](CN)CC2)C(=O)Nc2ccc(-c3nn[nH]n3)cc2)cc1 [Example 33, 4′-[(2S)-2-({[trans-4-(Aminomethyl)cyclohexyl]carbonyl}amino)-3-oxo-3-{[4-(2H-tetrazol-5-yl)phenyl]amino}propyl]-N-(trans-4-hydroxycyclohexyl)-2-methylbiphenyl-4-carboxamide hydrochloride]	0.11 µmol/L	0.78 nM
Cc1cc(C(=O)NCCN)ccc1-c1ccc(C[C@H](NC(=O)[C@H]2CC[C@H](CN)CC2)C(=O)Nc2ccc(-c3nn[nH]n3)cc2)cc1 [Example 15, N-(2-Aminoethyl)-4′-[(2S)-2-({[trans-4-(aminomethyl)cyclohexyl]carbonyl}amino)-3-oxo-3-{[4-(2H-tetrazol-5-yl)phenyl]amino}propyl]-2-methylbiphenyl-4-carboxamide hydrochloride]	0.09 µmol/L	2.9 nM
COc1c(-c2ccc(C[C@H](NC(=O)[C@H]3CC[C@H](CN)CC3)C(=O)Nc3ccc(-c4nn[nH]n4)cc3)cc2)ccc(C(=O)NC2CCNCC2)c1F [Example 121, 4′-[(2S)-2-({[trans-4-(Aminomethyl)cyclohexyl]carbonyl}amino)-3-oxo-3-{[4-(2H-tetrazol-5-yl)phenyl]amino}propyl]-3-fluoro-2-methoxy-N-(piperidin-4-yl)biphenyl-4-carboxamide hydrochloride]	0.007 µmol/L	1 nM
Cc1cc(C(=O)NCCO)ccc1-c1ccc(C[C@H](NC(=O)[C@H]2CC[C@H](CN)CC2)C(=O)Nc2ccc(-c3nn[nH]n3)cc2)cc1 [Example 18, 4′-[(2S)-2-({[trans-4-(Aminomethyl)cyclohexyl]carbonyl}amino)-3-oxo-3-{[4-(2H-tetrazol-5-yl)phenyl]amino}propyl]-N-(2-hydroxyethyl)-2-methylbiphenyl-4-carboxamide hydrochloride]	0.16 µmol/L	3.7 nM
NC[C@H]1CC[C@H](C(=O)N[C@@H](Cc2ccc(-c3ccc(C(=O)NC4CC4)cc3)cc2)C(=O)Nc2ccc(-c3nnn[nH]3)cc2)CC1 [Example 62, 4′-[(2S)-2-({[trans-4-(Aminomethyl)cyclohexyl]carbonyl}amino)-3-oxo-3-{[4-(1H-tetrazol-5-yl)phenyl]amino}propyl]-N-cyclopropylbiphenyl-4-carboxamide hydrochloride]	0.53 µmol/L	2.9 nM
Cc1cc(C(=O)N[C@H]2CC[C@H](N)CC2)ccc1-c1ccc(C[C@H](NC(=O)[C@H]2CC[C@H](CN)CC2)C(=O)Nc2ccc3[nH]c(C(F)(F)C(F)(F)F)nc3c2)cc1 [Example 79, N-(trans-4-Aminocyclohexyl)-4′-[(2S)-2-({[trans-4-(aminomethyl)cyclohexyl]carbonyl}amino)-3-oxo-3-{[2-(pentafluoroethyl)-1H-benzimidazol-5-yl]amino}propyl]-2-methylbiphenyl-4-carboxamide hydrochloride]	0.21 µmol/L	12 nM
Cc1cc(C(=O)NC2CCN(C)CC2)ccc1-c1ccc(C[C@H](NC(=O)[C@H]2CC[C@H](CN)CC2)C(=O)Nc2ccc(-c3nn[nH]n3)cc2)cc1 [Example 42, 4′-[(2S)-2-({[trans-4-(Aminomethyl)cyclohexyl]carbonyl}amino)-3-oxo-3-{[4-(2H-tetrazol-5-yl)phenyl]amino}propyl]-2-methyl-N-(1-methylpiperidin-4-yl)biphenyl-4-carboxamide hydrochloride]	0.1 µmol/L	3.6 nM
Cc1cc(C(=O)N[C@@H]2C[C@@H](CO)NC2=O)ccc1-c1ccc(C[C@H](NC(=O)[C@H]2CC[C@H](CN)CC2)C(=O)Nc2ccc3[nH]c(=O)[nH]c3c2)cc1 [Example 97, 4′-{(2S)-2-({[trans-4-(Aminomethyl)cyclohexyl]carbonyl}amino)-3-oxo-3-[(2-oxo-2,3-dihydro-1H-benzimidazol-5-yl)amino]propyl}-N-[(3R,5S)-5-(hydroxymethyl)-2-oxopyrrolidin-3-yl]-2-methylbiphenyl-4-carboxamide hydrochloride]	0.06 µmol/L	3.2 nM
